≈ marks a conversion by molar mass, not a printed value.
Tested on: KB cells
Assay: Growth Inhibition Action on KB cell (in vitro)
Format: cell-based
Conditions: Homo sapiens, 72 hours incubation, MTT absorbance, final DMSO 0.5%, read-out: IC50 (concentration of 50% growth inhibition) on KB cells
Procedure: Experiment: Growth Inhibition Action on KB cell (in vitro)
1×10^3 of KB cells/0.1 ml of a cell suspension in MEM medium containing 10% fetal bovine serum was placed in each well of a plate with 96 flat bottom wells, and incubated for 24 hours. This was dissolved in dimethylsulfoxide, and 100 μl of a solution (final concentration of dimethylsulfoxide: 0.5%) of a test compound diluted with the medium was added thereto, followed by incubation for 72 hours. After incubation, 4,5-dimethylthiazol-2-yl-2,5-diphenyltetrazolium bromide reagent (a color reagent) was added, and the mixture was further incubated for 4 hours.
100 μl of the medium (final concentration of dimethylsulfoxide:0.5%) was added as a control, and incubated in a similar manner. After incubation, the medium was removed, and the cells were dissolved in 150 μl of dimethylsulfoxide and the absorbance was determined. The ratio of the absorbance of the group treated with the test compound to that of the control group was determined, and the concentration of 50% growth inhibition (IC50) was calculated.

`CC(C)C[C@@H](O)[C@@]1([C@H]2CC[C@H]3[C@@H]4CC[C@H]5CC(=O)CC[C@]5(C)[C@H]4C[C@@H](O)[C@]23C)CO1` [Compound (12a)] was tested, and the IC50 was 0.0965 µg/mL (≈ 0.231 µM).

From patent US5712263A, “Steroid derivatives” (Taisho Pharmaceutical Co., Ltd., priority 1993, dated 1998)
